Assay results taken from US20080132569A1, “Antifungal Compositions for Inhibiting Growth of Wood Decay Fungi and Use Thereof” (priority 2006, published 2008).
In brackets after ≈: the same amount, converted by molar mass. Several values for one entry are separate records, joined by “and”; a condition that tells them apart may be missing. Equal entries are not always repeated. Where two headings read alike, the source gives them in different places. Marks after values point to notes of the source that are not given here.

Assays:
[1] = Antifungal assay, mycelium growth on PDA containing the chemical; conditions: G. trabeum; for Antifungal index (%): Table 1
[2] = as above; conditions: for Antifungal index: 50 μg/ml
[3] = as above; conditions: T. versicolor; for Antifungal index (%): Table 1
[4] = as above
[5] = MIC and MFC determination on PDA; conditions: L. betulina
[6] = MIC and MFC determination on PDA; conditions: L. sulphureus
[7] = Antifungal activity on paper (CNS 2690, TAPPI T487 cm-93); conditions: A. terreus, 14 days
[8] = as above; conditions: A. niger, 14 days
[9] = as above; conditions: C. globosum, 14 days
[10] = L. betulina, 100 μg/ml, Table 1
[11] = L. sulphureus, 100 μg/ml, Table 1
[12] = Example 1, FIG. 1(A), read-out: IC50 (concentration that inhibited 50% of the mycelium growth)
[13] = L. betulina, 100 μg/ml, Table 4, mean ± SE (n = 5)
[14] = L. betulina, Table 5, mean ± SE (n = 5), combinations at 1:1 ratio in molarities
[15] = L. betulina, Table 5, mean ± SE (n = 5), combinations at 1:1 ratio in molarities, read-out: IC50
[16] = L. sulphureus, 100 μg/ml, Table 4, mean ± SE (n = 5)
[17] = L. sulphureus, Table 5, mean ± SE (n = 5), combinations at 1:1 ratio in molarities
[18] = L. sulphureus, Table 5, mean ± SE (n = 5), combinations at 1:1 ratio in molarities, read-out: IC50
[19] = L. sulphureus, single compound at 0.17 mM

## Cc1cc(C(C)(C)C)c(O)c(C(C)(C)C)c1 [BHT, Butylated hydroxyltoluene, reference compound]
[1]; 100 μg/ml
  Antifungal index (%): 0 ± 0%
[2]; [10]
  Antifungal index (%): 16 ± 3.4%
[3]; 100 μg/ml
  Antifungal index (%): 23 ± 2.6%
[4]; [11]
  Antifungal index (%): 21 ± 5.6%

## O=CC=Cc1ccccc1 [Cinnamaldehyde, cinnamaldehyde]
[1]; 50 μg/ml, Example 3, FIG. 2(B)
  Antifungal index: 22%
[1]; 100 μg/ml
  Antifungal index (%): 31 ± 0.7%
[1]; [12]
  IC50: 1050 µM
[2]; L. betulina, Example 3, FIG. 2(A)
  Antifungal index: 6%
[2]; [10]
  Antifungal index (%): 100 ± 0%
[2]; [13]
  Antifungal index (%): 100% and 100 ± 0.0^a %
[2]; L. betulina, Example 1, FIG. 1(A), read-out: IC50 (concentration that inhibited 50% of the mycelium growth)
  IC50: 650 µM
[2]; [14]
  IC90: 720 ± 60 µM
[2]; [15]
  IC50: 650 µM
[5]
  MFC: 750 µM (≈ 99.1 µg/mL)
  MIC: 750 µM (≈ 99.1 µg/mL)
[3]; 100 μg/ml
  Antifungal index (%): 34 ± 2.2%
[3]; [12]
  IC50: 1110 µM
[6]
  MFC: 700 µM (≈ 92.5 µg/mL)
  MIC: 700 µM (≈ 92.5 µg/mL)
[4]; [11]
  Antifungal index (%): 100 ± 0%
[4]; [16]
  Antifungal index (%): 100% and 100 ± 0.0^a %
[4]; L. sulphureus, Example 1, FIG. 1(A), read-out: IC50 (concentration that inhibited 50% of the mycelium growth)
  IC50: 170 µM
[4]; [17]
  IC90: 530 ± 20 µM
[4]; [18]
  IC50: 230 µM
[4]; [19]
  Antifungal index: 41%

## O=C(O)CN(CCN(CC(=O)O)CC(=O)O)CC(=O)O [EDTA, diaminoethanetetraacetic acid]
[2]; Lenzites betulina, Example 5
  Antifungal index: 90%
[4]; Laetiporus sulphureus, 50 μg/ml, Example 5
  Antifungal index: 10%

## C=CCc1ccc(O)c(OC)c1 [Eugenol, eugenol]
[2]; [13]
  Antifungal index (%): 100 ± 0.0^a %
[2]; L. betulina, 100 μg/ml, Table 4, mean ± SE (n = 5), listed as eugenol
  Antifungal index (%): 100%
[2]; [14]
  IC90: 650 ± 50 µM
[2]; [15]
  IC50: 370 µM
[5]
  MFC: 700 µM (≈ 115 µg/mL)
  MIC: 700 µM (≈ 115 µg/mL)
[6]
  MFC: 650 µM (≈ 107 µg/mL)
  MIC: 650 µM (≈ 107 µg/mL)
[4]; [16]
  Antifungal index (%): 100 ± 0.0^a %
[4]; L. sulphureus, 100 μg/ml, Table 4, mean ± SE (n = 5), listed as eugenol
  Antifungal index (%): 100%
[4]; [17]
  IC90: 520 ± 10 µM
[4]; [18]
  IC50: 250 µM
[4]; [19]
  Antifungal index: 24%

## CCCC1COC(Cn2cncn2)(c2ccc(Cl)cc2Cl)O1 (stereo not drawn) [Propiconazole, propiconazole]
[1]; 1 μg/ml (propiconazole)
  Antifungal index (%): 52 ± 3.7%
[2]; L. betulina, 1 μg/ml (propiconazole), Table 1
  Antifungal index (%): 100 ± 0%
[2]; L. betulina, 1 μg/ml (propiconazole), Table 1, listed as propiconazole
  Antifungal index (%): 100%
[2]; L. betulina, 1 μg/ml (propiconazole), Table 4, mean ± SE (n = 5)
  Antifungal index (%): 100 ± 0.0^a %
[2]; L. betulina, 1 μg/ml (propiconazole), Table 4, mean ± SE (n = 5), listed as propiconazole
  Antifungal index (%): completely inhibited
[3]; 1 μg/ml (propiconazole)
  Antifungal index (%): 92 ± 0.6%
[4]; L. sulphureus, 1 μg/ml (propiconazole), Table 1
  Antifungal index (%): 100 ± 0%
[4]; L. sulphureus, 1 μg/ml (propiconazole), Table 1, listed as propiconazole
  Antifungal index (%): 100%
[4]; L. sulphureus, 1 μg/ml (propiconazole), Table 4, mean ± SE (n = 5)
  Antifungal index (%): 100 ± 0.0^a %
[4]; L. sulphureus, 1 μg/ml (propiconazole), Table 4, mean ± SE (n = 5), listed as propiconazole
  Antifungal index (%): completely inhibited

## CCCOC(=O)c1cc(O)c(O)c(O)c1 [Propyl gallate, propyl gallate]
[1]; 100 μg/ml
  Antifungal index (%): 2 ± 0.6%
[7]; 100 μg/cm^2 on filter paper
  Percent inhibition ratio: 0 ± 0%
[7]; 400 μg/cm^2 on filter paper
  Percent inhibition ratio: 0 ± 0%
[8]; 100 μg/cm^2 on filter paper
  Percent inhibition ratio: 0 ± 0%
[8]; 400 μg/cm^2 on filter paper
  Percent inhibition ratio: 0 ± 0%
[2]; [10]
  Antifungal index (%): 1 ± 1.9%
[9]; 100 μg/cm^2 on filter paper
  Percent inhibition ratio: 0 ± 0%
[9]; 100 μg/cm^2 on filter paper, listed as propyl gallate
  Percent inhibition ratio: did not show any antifungal activity
[9]; 400 μg/cm^2 on filter paper
  Percent inhibition ratio: 100 ± 0%
[9]; 400 μg/cm^2 on filter paper, listed as propyl gallate
  Percent inhibition ratio: 100%
[3]; 100 μg/ml
  Antifungal index (%): 0 ± 0%
[4]; [11]
  Antifungal index (%): 0 ± 0%

## O=c1c(O)c(-c2ccc(O)c(O)c2)oc2cc(O)cc(O)c12 [Quercetin, quercetin]
[2]; [13]
  Antifungal index (%): 0 ± 0.0^b %
[2]; L. betulina, 100 μg/ml, Table 4, mean ± SE (n = 5), listed as quercetin
  Antifungal index (%): did not express antifungal activities
[2]; [14]
  IC90: > 100000 µM
[2]; [15]
  IC50: > 100000 µM
[4]; [16]
  Antifungal index (%): 0 ± 0.0^c %
[4]; L. sulphureus, 100 μg/ml, Table 4, mean ± SE (n = 5), listed as quercetin
  Antifungal index (%): did not express antifungal activities
[4]; [17]
  IC90: > 100000 µM
[4]; [18]
  IC50: 64000 ± 250 µM

## catechin
[2]; [13]
  Antifungal index (%): 3 ± 1.5^b %
[2]; L. betulina, 100 μg/ml, Table 4, mean ± SE (n = 5), listed as catechin
  Antifungal index (%): did not express antifungal activities
[2]; [14]
  IC90: > 100000 µM
[2]; [15]
  IC50: > 100000 µM
[4]; [16]
  Antifungal index (%): 5 ± 1.8^b %
[4]; L. sulphureus, 100 μg/ml, Table 4, mean ± SE (n = 5), listed as catechin
  Antifungal index (%): did not express antifungal activities
[4]; [17]
  IC90: 80000 ± 140 µM
[4]; [18]
  IC50: 40000 ± 120 µM
